Legend:
osteoclast = assay: Osteoclast differentiation inhibition, myeloplast-derived macrophage with hM-CSF and RANKL, TRAP staining (Example 4); type: cell-based, mice (C57BL/6J); conditions: 10 mM; 30 ng/ml hM-CSF, 100 ng/ml RANKL; 4 days
Procedure: Myeloplasts collected from five-week mice (C57BL/6J) were added to 48-well plate and cultured in a differentiation medium [a-MEM (Invitrogen. co.), 10% (v/v) Fetal bovine serum (FBS), 100 units/ml penicillin, 100 μg/ml streptomycin] including 30 ng/ml of hM-CSF (R&D system Inc.) that is a macrophage differentiator for three days under the conditions of 37° C., 95% (v/v) air, and 5% (v/v) CO2 to be 4×10^4 cell/well so that the macrophase derived from the myeloplast was obtained. In this situation, in addition to the concentration of 30 ng/ml hM-CSF, mouse RANKL that is an osteoclast differentiator was expressed in E. coli; it was purely separated and purified; it was added in the concentration of 100 ng/ml; and then it was continuously cultured under the same conditions to induce the cell differentiation to the osteoclast. After culturing for 4 days, the cell was fixed with 3.7% formaldehyde for 15 minutes at room temperature; washed with distilled water twice; the staining solution made by mixing acetate, Fast Gargnet GBC base, naphtol AS-BI phosphate, […], and tartrate in the ratio as disclosed in the instructions of Acid Phosphatase, Leukocyte (TRAP) Kit™ (Sigma Co.) was added to be […]; and then reacted at 37° C. for 20 minutes to stain the differentiated osteoclast.

mouse osteoclast = assay: Osteoclast differentiation inhibition, mouse osteoclast with M-CSF and RANKL (Example 5); type: cell-based; conditions: M-CSF 30 ng/ml, RANKL 200 ng/ml
Procedure: For FIG. 6, the mouse osteoclast (2×10^4/well) was added to 48 well plate; M-CSF (30 ng/ml) and RANKL (200 ng/ml) were added at the same time; and then 10 mM of each of C01, CO2, and G10 that are an osteopontin inhibitor was treated to analysis the inhibition ability for differentiating to an osteoclast.

mouse skull calvaria = assay: Mouse Calvaria Model, LPS-induced born destruction; type: in vivo; conditions: Lipopolysaccharide 10 mg/kg to mouse skull; compound 10 mg/kg
Procedure: […] On 5 days, the mice calvaria were extracted; the cross-section of the calvaria was stained with H&E Staining to identify; and then the inhibition degree of the born destruction effect was analyzed using Image-pro Plus 4.5 (Media Cybernetics, Inc.).

Row | SMILES | inhibition ability for differentiating to the osteoclast (osteoclast) | inhibition ability for differentiating to the osteoclast (mouse osteoclast) | effect on inhibiting the born destruction effect due to LPS in vivo (mouse skull calvaria)
1 | O=C(O)C1CSC(c2ccccn2)N1 (stereo not shown) [IPS-02003, 2-Pyridin-2-yl-thiazolidine-4-carboxylic acid] | no inhibition ability | no inhibition ability | –
2 | O=C1C(O)=C(O)C(=O)c2c(O)c(Cl)cc(O)c21 [IPS-02002, 6-Chloro-2,3,5,8-tetrahydroxy-[1,4]naphthoquinon] | excellent inhibition ability | excellent inhibition ability | –
3 | O=C1C(O)=C(O)C(=O)c2c(O)c(Cl)c(Cl)c(O)c21 [IPS-02001, 6,7-Dichloro-2,3,5,8-tetrahydroxy-[1,4]naphthoquinone] | excellent inhibition ability | excellent inhibition ability | has the effect on inhibiting the born destruction effect

From patent US20120264942A1, “METHOD FOR SCREENING OSTEOPONTIN INHIBITOR AND INHIBITOR OBTAINED FROM THE METHOD” (INNOPHARMASCREEN, INC., priority 2009, published 2012)
